Reference: US9422293B2 (priority 2006, dated 2016)
pIC50: −log10 of the molar value. Counter-ions that a name gives are not always drawn.

What follows are compounds tested against rat TRPV1 (Rattus norvegicus (Rat), UniProt O35433). Details: read-out: Rat IC50.
rat TRPV1, sequence (O35433 whole entry): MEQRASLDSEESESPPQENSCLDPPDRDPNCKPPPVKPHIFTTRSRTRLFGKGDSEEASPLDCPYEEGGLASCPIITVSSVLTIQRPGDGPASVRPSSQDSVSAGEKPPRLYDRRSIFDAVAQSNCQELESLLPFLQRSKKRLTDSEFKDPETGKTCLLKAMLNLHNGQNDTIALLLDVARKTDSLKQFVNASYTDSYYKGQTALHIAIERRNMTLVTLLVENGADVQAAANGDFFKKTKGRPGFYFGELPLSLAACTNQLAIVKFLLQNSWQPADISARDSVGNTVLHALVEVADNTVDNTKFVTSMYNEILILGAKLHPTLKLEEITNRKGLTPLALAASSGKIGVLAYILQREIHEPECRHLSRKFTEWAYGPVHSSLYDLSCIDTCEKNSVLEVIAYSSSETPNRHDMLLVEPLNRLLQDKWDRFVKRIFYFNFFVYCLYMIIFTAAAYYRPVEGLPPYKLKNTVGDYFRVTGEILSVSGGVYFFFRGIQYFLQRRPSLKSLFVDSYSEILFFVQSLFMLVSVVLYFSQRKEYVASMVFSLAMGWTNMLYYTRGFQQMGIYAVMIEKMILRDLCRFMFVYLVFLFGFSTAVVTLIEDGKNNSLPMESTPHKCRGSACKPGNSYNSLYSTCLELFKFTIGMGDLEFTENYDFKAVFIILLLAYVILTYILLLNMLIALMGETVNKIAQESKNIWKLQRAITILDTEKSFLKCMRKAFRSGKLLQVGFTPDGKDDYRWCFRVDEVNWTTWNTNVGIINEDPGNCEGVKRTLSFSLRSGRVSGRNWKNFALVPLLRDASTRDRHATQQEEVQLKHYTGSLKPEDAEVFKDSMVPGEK

SMILES	pIC50
Cc1ccc(Nc2nc(C(C)C)nc3c2CCN(c2ncccc2C(F)(F)F)CC3)cc1 [Example 151, 2-(1-Methylethyl)-N-(4-methylphenyl)-7-[3-(trifluoromethyl)pyridin-2-yl]-6,7,8,9-tetrahydro-5H-pyrimido[4,5-d]azepin-4-amine hydrochloride salt]	6.09
CC(C)c1nc2c(c(Nc3ccc(S(=O)(=O)N4CCCC4)cc3)n1)CCN(c1ncccc1C(F)(F)F)CC2 [Example 152, 2-(1-Methylethyl)-N-[4-(pyrrolidin-1-ylsulfonyl)phenyl]-7-[3-(trifluoromethyl)pyridin-2-yl]-6,7,8,9-tetrahydro-5H-pyrimido[4,5-d]azepin-4-amine]	6.26
CC(C)c1nc2c(c(Nc3ccc(S(=O)(=O)N(C)C)cc3)n1)CCN(c1ncccc1C(F)(F)F)CC2 [Example 154, N,N-Dimethyl-4-({2-(1-methylethyl)-7-[3-(trifluoromethyl)pyridin-2-yl]-6,7,8,9-tetrahydro-5H-pyrimido[4,5-d]azepin-4-yl}amino)benzenesulfonamide]	5.94
CC(C)c1nc2c(c(Nc3ccc(C(F)(F)F)cc3F)n1)CCN(c1ncccc1C(F)(F)F)CC2 [Example 155, N-[2-Fluoro-4-(trifluoromethyl)phenyl]-2-(1-methylethyl)-7-[3-(trifluoromethyl)pyridin-2-yl]-6,7,8,9-tetrahydro-5H-pyrimido[4,5-d]azepin-4-amine]	5.48
CC(=O)c1ccc(Nc2nc(N3CCCCC3)nc3c2CCN(c2ncccc2C(F)(F)F)CC3)cc1 [Example 156, 1-[4-({2-Piperidin-1-yl-7-[3-(trifluoromethyl)pyridin-2-yl]-6,7,8,9-tetrahydro-5H-pyrimido[4,5-d]azepin-4-yl}amino)phenyl]ethanone]	6.23
Fc1cc(Nc2nc(N3CCCCC3)nc3c2CCN(c2ncccc2C(F)(F)F)CC3)ccc1C(F)(F)F [Example 157, N-[3-Fluoro-4-(trifluoromethyl)phenyl]-2-piperidin-1-yl-7-[3-(trifluoromethyl)pyridin-2-yl]-6,7,8,9-tetrahydro-5H-pyrimido[4,5-d]azepin-4-amine]	7.15
CN(C)S(=O)(=O)c1ccc(Nc2nc(N3CCCCC3)nc3c2CCN(c2ncccc2C(F)(F)F)CC3)cc1 [Example 158, N,N-Dimethyl-4-({2-piperidin-1-yl-7-[3-(trifluoromethyl)pyridin-2-yl]-6,7,8,9-tetrahydro-5H-pyrimido[4,5-d]azepin-4-yl}amino)benzenesulfonamide]	7.22
CC(C)(C)c1ccc(Nc2nc(N3CCCCC3)nc3c2CCN(c2ncccc2C(F)(F)F)CC3)cc1[N+](=O)[O-] [Example 159, N-[4-(1,1-Dimethylethyl)-3-nitrophenyl]-2-piperidin-1-yl-7-[3-(trifluoromethyl)pyridin-2-yl]-6,7,8,9-tetrahydro-5H-pyrimido[4,5-d]azepin-4-amine]	7.52
CSc1ccc(Nc2nc(N3CCCCC3)nc3c2CCN(c2ncccc2C(F)(F)F)CC3)cc1 [Example 160, N-[4-(Methylsulfanyl)phenyl]-2-piperidin-1-yl-7-[3-(trifluoromethyl)pyridin-2-yl]-6,7,8,9-tetrahydro-5H-pyrimido[4,5-d]azepin-4-amine]	7.00
CC(C)c1nc2c(c(Nc3ccc4c(c3)N(C)CCC4)n1)CCN(c1ncccc1C(F)(F)F)CC2 [Example 161, [2-Isopropyl-7-(3-trifluoromethyl-pyridin-2-yl)-6,7,8,9-tetrahydro-5H-pyrimido[4,5-d]azepin-4-yl]-(1-methyl-1,2,3,4-tetrahydro-quinolin-7-yl)-amine]	6.89
CC(C)c1nc2c(c(Nc3ccc4c(c3)N(C)CCC4(C)C)n1)CCN(c1ncccc1C(F)(F)F)CC2 [Example 162, [2-Isopropyl-7-(3-trifluoromethyl-pyridin-2-yl)-6,7,8,9-tetrahydro-5H-pyrimido[4,5-d]azepin-4-yl]-(1,4,4-trimethyl-1,2,3,4-tetrahydro-quinolin-7-yl)-amine]	7.52
CN1CCCc2ccc(Nc3nc(N4CCCCC4)nc4c3CCN(c3ncccc3C(F)(F)F)CC4)cc21 [Example 163, (1-Methyl-1,2,3,4-tetrahydro-quinolin-7-yl)-[2-piperidin-1-yl-7-(3-trifluoromethyl-pyridin-2-yl)-6,7,8,9-tetrahydro-5H-pyrimido[4,5-d]azepin-4-yl]-amine hydrochloride salt]	6.92
CN1CCC(C)(C)c2ccc(Nc3nc(N4CCCCC4)nc4c3CCN(c3ncccc3C(F)(F)F)CC4)cc21 [Example 164, [2-Piperidin-1-yl-7-(3-trifluoromethyl-pyridin-2-yl)-6,7,8,9-tetrahydro-5H-pyrimido[4,5-d]azepin-4-yl]-(1,4,4-trimethyl-1,2,3,4-tetrahydro-quinolin-7-yl)-amine hydrochloride salt]	7.70
CC(C)c1nc2c(c(Nc3ccc(N4CCCC4)nc3)n1)CCN(c1ncccc1C(F)(F)F)CC2 [Example 165, [2-Isopropyl-7-(3-trifluoromethyl-pyridin-2-yl)-6,7,8,9-tetrahydro-5H-pyrimido[4,5-d]azepin-4-yl]-(6-pyrrolidin-1-yl-pyridin-3-yl)-amine]	5.65
Fc1cc(C(F)(F)F)ccc1Nc1nc(N2CCCCC2)nc2c1CCN(c1ncccc1C(F)(F)F)CC2 [Example 166]	6.42
FC(F)(F)c1ccc(Nc2nc(-c3ccncc3)nc3c2CCN(c2ncccc2C(F)(F)F)CC3)cc1 [Example 167, 2-Pyridin-4-yl-N-[4-(trifluoromethyl)phenyl]-7-[3-(trifluoromethyl)pyridin-2-yl]-6,7,8,9-tetrahydro-5H-pyrimido[4,5-d]azepin-4-amine trifluoroacetic acid salt]	6.43
CC(C)(C)c1ccc(Nc2nc(-c3ccncc3)nc3c2CCN(c2ncccc2C(F)(F)F)CC3)cc1 [Example 168, N-[4-(1,1-Dimethylethyl)phenyl]-2-pyridin-4-yl-7-[3-(trifluoromethyl)pyridin-2-yl]-6,7,8,9-tetrahydro-5H-pyrimido[4,5-d]azepin-4-amine trifluoroacetic acid salt]	7.52
FC(F)(F)c1ccc(Nc2nc(-c3ccncc3)nc3c2CCN(c2ncccc2C(F)(F)F)CC3)cc1Cl [Example 169, N-[3-Chloro-4-(trifluoromethyl)phenyl]-2-pyridin-4-yl-7-[3-(trifluoromethyl)pyridin-2-yl]-6,7,8,9-tetrahydro-5H-pyrimido[4,5-d]azepin-4-amine]	6.00
FC(F)(F)c1ccc(Nc2nc(-c3ccncc3)nc3c2CCN(c2ncccc2C(F)(F)F)CC3)cn1 [Example 170, 2-Pyridin-4-yl-7-[3-(trifluoromethyl)pyridin-2-yl]-N-[6-(trifluoromethyl)pyridin-3-yl]-6,7,8,9-tetrahydro-5H-pyrimido[4,5-d]azepin-4-amine trifluoroacetic acid salt]	7.22
CC(C)(C)c1ccc(Nc2nc(-c3ccccn3)nc3c2CCN(c2ncccc2C(F)(F)F)CC3)cc1 [Example 171, N-[4-(1,1-Dimethylethyl)phenyl]-2-pyridin-2-yl-7-[3-(trifluoromethyl)pyridin-2-yl]-6,7,8,9-tetrahydro-5H-pyrimido[4,5-d]azepin-4-amine trifluoroacetic acid salt]	7.10
FC(F)(F)c1ccc(Nc2nc(-c3ccccn3)nc3c2CCN(c2ncccc2C(F)(F)F)CC3)cc1 [Example 172, 2-Pyridin-2-yl-N-[4-(trifluoromethyl)phenyl]-7-[3-(trifluoromethyl)pyridin-2-yl]-6,7,8,9-tetrahydro-5H-pyrimido[4,5-d]azepin-4-aminele 1 trifluoroacetic acid salt]	6.89
FC(F)(F)c1ccc(Nc2nc(-c3ccccn3)nc3c2CCN(c2ncccc2C(F)(F)F)CC3)cc1Cl [Example 173, N-[3-Chloro-4-(trifluoromethyl)phenyl]-2-pyridin-2-yl-7-[3-(trifluoromethyl)pyridin-2-yl]-6,7,8,9-tetrahydro-5H-pyrimido[4,5-d]azepin-4-amine trifluoroacetic acid salt]	6.68
COC(=O)C(C)(C)c1ccc(Nc2nc(C(C)C)nc3c2CCN(c2ncccc2C(F)(F)F)CC3)cc1 [Example 174, Methyl 2-methyl-2-[4-({2-(1-methylethyl)-7-[3-(trifluoromethyl)pyridin-2-yl]-6,7,8,9-tetrahydro-5H-pyrimido[4,5-d]azepin-4-yl}amino)phenyl]propanoate]	5.70
COC(=O)C(C)(C)c1ccc(Nc2nc(N3CCCCC3)nc3c2CCN(c2ncccc2C(F)(F)F)CC3)cc1 [Example 175, Methyl 2-methyl-2-[4-({2-piperidin-1-yl-7-[3-(trifluoromethyl)pyridin-2-yl]-6,7,8,9-tetrahydro-5H-pyrimido[4,5-d]azepin-4-yl}amino)phenyl]propanoate]	7.10
FC(F)(F)c1ccc(Nc2nc(-c3cccnc3)nc3c2CCN(c2ncccc2C(F)(F)F)CC3)cc1 [Example 176, 2-Pyridin-3-yl-N-[4-(trifluoromethyl)phenyl]-7-[3-(trifluoromethyl)pyridin-2-yl]-6,7,8,9-tetrahydro-5H-pyrimido[4,5-d]azepin-4-amine trifluoroacetic acid salt]	6.09
CC(C)(O)c1ccc(Nc2nc(N3CCCCC3)nc3c2CCN(c2ncccc2C(F)(F)F)CC3)cc1 [Example 177, 2-[4-({2-Piperidin-1-yl-7-[3-(trifluoromethyl)pyridin-2-yl]-6,7,8,9-tetrahydro-5H-pyrimido[4,5-d]azepin-4-yl}amino)phenyl]propan-2-ol]	7.05
CC(C)c1nc2c(c(Nc3ccc(C(C)(C)O)cc3)n1)CCN(c1ncccc1C(F)(F)F)CC2 [Example 178, 2-[4-({2-(1-Methylethyl)-7-[3-(trifluoromethyl)pyridin-2-yl]-6,7,8,9-tetrahydro-5H-pyrimido[4,5-d]azepin-4-yl}amino)phenyl]propan-2-ol]	6.96
CC(C)c1nc2c(c(Nc3ccc(C(C)(O)C(F)(F)F)cc3)n1)CCN(c1ncccc1C(F)(F)F)CC2 (stereo not shown) [Example 179, 1,1,1-Trifluoro-2-[4-({2-(1-methylethyl)-7-[3-(trifluoromethyl)pyridin-2-yl]-6,7,8,9-tetrahydro-5H-pyrimido[4,5-d]azepin-4-yl}amino)phenyl]propan-2-ol]	5.87
